Source: article PMC11083769, “Characterization and pharmacokinetics of cinnamon and star anise compound essential oil pellets prepared via centrifugal granulation technology” (BMC Veterinary Research, 2024)
Values after ≈ are worked out from the molar mass of the structure shown. Marks after values point to notes of the source that are not given here.

Columns and labels:
[1] = test system: Staphylococcus aureus Newman strain; design: method as in PMID 32185411; settings: cited from earlier work
[2] = Pharmacokinetics of compound essential oil pellets in pig model; type: in vivo; settings: single dose, n = 6
Excerpt: Six healthy Landrace × Large White hybrid pigs were randomly divided into three groups for pharmacokinetic experiments and were purchased from JuCong Agriculture, Nanning, Guangxi. During the adaptation period, the temperature of the breeding environment was 18–25℃, the relative humidity was 50–65%, and commercial feed and water free of antibiotics and target drugs were freely available to the pigs housed individually in six pig pens. After the experiment, the pigs were released.
After one week in the experimental setting, the pigs were labelled with numbers 1–6, randomly divided into 3 groups, and weighed before the experiment. […] Compound essential oil pellets were orally administered at three different doses of 50, 100 and 200 mg/kg. Three cycles of crossover trials were performed with 6 pigs, with each cycle separated by 7 days. 5 mL of blood was collected from the anterior vena cava at different time points after administration, centrifuged at 3000 r/min for 10 min, after which the plasma was separated. The drug concentration in the plasma was detected by GC‒MS/MS after pretreatment.
The average drug-time curve of each group was drawn. WinNonlin version 5.2.1 was used to calculate the pharmacokinetic parameters.
The compound essential oil pellet concentration was measured using GC‒MS/MS. The chromatographic conditions were as follows. A PEG-20 M column (30 m × 0.32 mm, 0.25 μm) was used. The temperature was increased from 90 ℃ to 160 ℃ at a heating rate of 10 ℃/min, held for 5 min, further increased from 160 ℃ to 280 ℃ at a heating rate of 20 ℃/min and held for 2 min.

[3] = oral compound essential oil pellets 50 mg/kg
[4] = oral compound essential oil pellets 100 mg/kg
[5] = oral compound essential oil pellets 200 mg/kg

In the case of `C/C=C/c1ccc(OC)cc1` [trans-anethole, Trans-anethole], the MIC [1] is given as 49.4 mg/mL (≈ 333 mM).

With `O=C/C=C/c1ccccc1` [cinnamaldehyde, Cinnamaldehyde] the “AUC0−∞ of plasma cinnamaldehyde” value [2, 3] was 1433.11 ± 21.30^a h·µg/L, the “CL of plasma cinnamaldehyde” value [2, 3] was 18.69 ± 1.81^ac L/h/kg and the “Cmax of plasma cinnamaldehyde” value [2, 3] was 58.81 ± 6.16^a µg/L. The “MRT0−∞ of plasma cinnamaldehyde” value [2, 3] was 20.96 ± 0.21^a h, the “T1/2 of plasma cinnamaldehyde” value [2, 3] was 14.52 ± 0.14^a h and the “Tmax of plasma cinnamaldehyde” value [2, 3] was 2.00 h. For the same compound, the “Vz of plasma cinnamaldehyde” value [2, 3] was 1205.24 ± 149.37^ab L/kg, the “AUC0−∞ of plasma cinnamaldehyde” value [2, 4] was 467.05 ± 141.28^d h·µg/L and the “CL of plasma cinnamaldehyde” value [2, 4] was 142.48 ± 40.58^d L/h/kg. The “Cmax of plasma cinnamaldehyde” value [2, 4] was 37.57 ± 5.56^d µg/L, the “MRT0−∞ of plasma cinnamaldehyde” value [2, 4] was 17.62 ± 1.84^d h and the “T1/2 of plasma cinnamaldehyde” value [2, 4] was 12.21 ± 1.27^d h. The “Tmax of plasma cinnamaldehyde” value [2, 4] was 2.00 h, the “Vz of plasma cinnamaldehyde” value [2, 4] was 7671.46 ± 1809.86^d L/kg and the “AUC0−∞ of plasma cinnamaldehyde” value [2, 5] was 1653.25 ± 295.40 µg·h/L. The “CL of plasma cinnamaldehyde” value [2, 5] was 56.85 ± 15.32 L/h/kg, the “Cmax of plasma cinnamaldehyde” value [2, 5] was 64.18 ± 2.33 µg/L and the “MRT0−∞ of plasma cinnamaldehyde” value [2, 5] was 20.68 ± 0.61 h. For the same compound, the “T1/2 of plasma cinnamaldehyde” value [2, 5] was 14.33 ± 0.42 h, the “Tmax of plasma cinnamaldehyde” value [2, 5] was 2.00 h and the “Vz of plasma cinnamaldehyde” value [2, 5] was 4593.67 ± 625.29 L/kg.
